The conditions of series [1]: cited from earlier work.
For series [2] the following is noted: cited from earlier work. The source holds these as a separate data set.
Series [3] in a line: Sucrose as supplementary solubilizing agent, crystallization after 3 days (Example 5). The protocol: Solutions containing varying quantities of theophylline, glyceryl guaiacolate, and sucrose according to the figures arranged in the following table are prepared. The ingredients are warmed to about 60° C. to effect solution and the solutions are then kept at room temperature to observe whether crystallization occurs. Sucrose is taken as representative of the total of all other water soluble pharmaceutically acceptable ingredients that may be used in formulating the present compositions for the purposes of this experiment. It is apparent, of course, that the actual weight of flavors, colors, and other ingredients that will ordinarily be used for the purpose of creating pharmaceutical elegance will be relatively minor and that sucrose or equivalent material such as corn syrup or sorbitol is the only ingredient of this type which will ordinarily be used in substantial quantity.
(§1) (1) per 100 ml. of solution.
(§2) (2) per 100 ml. of water in solution.
*Appearance of duplicate samples after being stored separately at
26° C. and at 0° C. for 3 days.

Series [4] is described as follows: Guaiacol as solubilizing agent for theophylline in water (Example 2). It is filed as physicochemical. The method, then: In order to test the effectiveness of guaiacol as a solubilizing agent for theophylline in water, an experiment corresponding to the last entry in the table accompanying Example 1 is conducted. Theophylline, 4.0 g., and guaiacol, 4.39 g. […] A haze forms as the result of liquefaction of the guaiacol without complete solution thereof.
This amount will solubilize up to and including 4.25 g. of theophylline per 100 ml. of water in the composition. For lower theophylline concentrations, proportionately less guaiacol may be used, 0.47 g. thereof per 100 ml. being sufficient to solubilize 0.85 g. of theophylline per 100 ml.

For series [5] the following is noted: accepted by the art; cited from earlier work.
A short description of series [6]: Solubility of theophylline in water with glyceryl guaiacolate, crystallization after 3 days (Example 1). It is filed as physicochemical. Particulars: for Result (appearance after storage): 3 days. The method, then: Varying quantities of theophylline and glyceryl guaiacolate are mixed and warmed with sufficient water to provide 100 ml. of solution. The solutions are cooled, adjusted to 100 ml. volume, and kept for 3 days to allow crystallization to take place. The specific gravities of the fresh solutions are measured, and the amount of water contained in 100 ml. of solution calculated. Two identical tubes of each composition are prepared. One is kept at room temperature (25° C.) and the other at 0° C.
A larger quantity of theophylline, 1.0 g./100 ml., will, however, dissolve when 0.75 g. of glyceryl guaiacolate per 100 ml. is also present in solution. Up to 4.0 g. of theophylline per 100 ml. of solution is soluble at room temperature when 7.0 g. of glyceryl guaiacolate per 100 ml. of solution is employed.
as §1, §2

For series [7] the following is noted: cited from earlier work. This is another data set of the same source.
Series [8] is described as follows: Solubility in water or ethanol (statements in the description).

Each structure is given as a SMILES string. Converted amounts (≈) assume the structure as drawn. Read-outs that look alike come from different tables or passages of the source. Where only a bound is given, the exact number is not on record here.

What is called solubility is the dissolved amount per volume that the medium holds.

`Cn1c(=O)c2[nH]cnc2n(C)c1=O` [aminophylline]: the “precipitation under acidic conditions” value in [1] (acidic conditions such as occur in the stomach) is reported as “precipitation often occurs”. In addition, the “solubility in alkaline solution” value in [1] (in excess of pH 8.0) is given as “relatively high solubilities in alkaline solution”.
On to `COc1ccccc1OCC(O)CO` (stereo not drawn) [glyceryl guaiacolate], for which the “concentration of saturated solution in water” value in [2] (25 °C) is 5 g./100 ml. Also, the water solubility in series [2] was not below 1.7 g./100 ml. For the same compound, in series [3], the “glyceryl guaiacolate per 100 ml. of water in composition” value was 8.7 g. per 100 ml. of water. Besides, the “glyceryl guaiacolate upper concentration limit with sucrose” value in series [3] (water, 72 h) is given as ≥ 8.7 g. per 100 ml. of water.
On to `COc1ccccc1O` [guaiacol], for which the “specific gravity of solution” value in series [4] (guaiacol 3.8 g, theophylline 4.0 g) is approximately 1.016. Further, in series [4] (guaiacol 3.8 g, 3 days, room temperature or 0 °C), the crystallization on storage entry was “no crystals separate”. Besides, the “useful upper guaiacol solubility ratio” value in series [4] (room temperature or 0 °C, 4320 min) was “about 4.05 g. per 100 ml. of water”. In addition, the appearance of solution result was “clear solution” in series [4] (theophylline 4.0 g, guaiacol 3.8 g) and “A haze forms” in series [4] (theophylline 4.0 g, guaiacol 4.39 g). In addition, in [4] (with 4.37 g. theophylline), the “guaiacol dissolved in 100 ml. of water” value was 4.05 g. Moreover, the “concentration of saturated solution in water” value in series [2] (room temperature, absence of other solutes) is 1.7 g./100 ml. For the same compound, the water solubility in series [2] is not below 1.7 g./100 ml.
As for `COc1ccccc1OC1(O)C(=O)NC(=O)NC1=O` [hemiacetal condensation product of guaiacol and alloxan], in series [2], the water solubility was not below 1.7 g./100 ml.
For `COc1cc(S(=O)(=O)[O-])ccc1O.O.[K+]` [potassium guaiacol sulfonate], the water solubility in series [2] is reported as not below 1.7 g./100 ml. Moreover, the crystallization on storage result runs as follows: (potassium guaiacol sulfonate 4.28 g, theophylline 1.5 g per 100 ml., ice temperature) “Slight crystallization occurs”; (potassium guaiacol sulfonate 4.28 g, theophylline 2 g per 100 ml., 0 °C) “Crystallization from this solution occurs”; (potassium guaiacol sulfonate 8.56 g, theophylline 4.0 g in 100 ml., 0 °C) “Crystallization from this solution occurs”; (potassium guaiacol sulfonate 8.56 g, theophylline 4.0 g in 100 ml., room temperature) “Crystallization from this solution occurs”. Further, for the setting “potassium guaiacol sulfonate 4.28 g, theophylline 1.5 g per 100 ml., room temperature”, the appearance of solution entry is listed as “clear solution”. Besides, under “potassium guaiacol sulfonate 4.28 g, theophylline 2 g per 100 ml., room temperature”, the “separation of solid on storage” value is “only very slight separation of solid material occurs”.
`Cn1c(=O)c2[nH]cnc2n(C)c1=O` [theophylline]: the therapeutic blood concentration in series [5] is 5 µg/mL. For the same compound, the “theophylline solubilized by guaiacol” value in series [4] (guaiacol 0.47 g. per 100 ml.) was 0.85 g. per 100 ml. Further, the “theophylline solubilized per 100 ml. of water” value in series [4] (guaiacol about 4.05 g. per 100 ml. water, 4320 min) is ≤ 4.25 g. per 100 ml. of water. Further, in series [2] (published figure), the solubility in ethanol is 1.25 g./100 ml. Further, the “crystallization at ice temperature” value in [6] (4.0 g theophylline, 7.0 g glyceryl guaiacolate per 100 ml. solution) is on record as “Crystallization at ice temperature does, however, occur”; in series [6] (4.37 g theophylline, 7.64 g glyceryl guaiacolate per 100 ml. water), “Slight crystallization”. The “theophylline soluble per 100 ml. of solution” value in series [6] (glyceryl guaiacolate 7.0 g. per 100 ml. of solution, room temperature, 4320 min) is on record as “Up to 4.0 g. per 100 ml. of solution”. Also, the “Result (appearance after storage)” value in [6] (theophylline 0.83 g, glyceryl guaiacolate 0 per 100 ml solution, 25 °C) is listed as “Clear Solution”; in [6] (theophylline 0.85 g, glyceryl guaiacolate 0 per 100 ml solution, 0 °C) it was “Crystals formed”; in [6] (theophylline 1.00 g, glyceryl guaiacolate 0.75 g per 100 ml solution, 25 °C), “Solution clear”; in series [6] (theophylline 3.50 g, glyceryl guaiacolate 4.00 g per 100 ml solution, 0 °C), “Crystals formed”; in series [6] (theophylline 3.50 g, glyceryl guaiacolate 5.00 g per 100 ml solution, 25 °C) it was “Clear solution”; in series [6] (theophylline 4.00 g, glyceryl guaiacolate 7.00 g per 100 ml solution, 0 °C), “Crystals formed”. Also, in series [6] (theophylline 4.00 g, glyceryl guaiacolate 7.00 g per 100 ml solution, 25 °C), the “Result (appearance after storage)” value is recorded as “Clear solution”. The solubility in [6] (water, no glyceryl guaiacolate, read-out: normal solubility of theophylline (exceeded by)) is less than 8.5 mg/mL; in series [8] (water) it was 80 mg/mL (≈ 444 mM). Further, the “pain on intramuscular injection” value in [7] (intramuscular) is on record as “painful”. In addition, the absorption pattern entry in series [7] (oral) was “irregular absorption pattern”. Further, in [7] (oral), the gastrointestinal side effects result is “frequently results in abdominal discomfort, nausea, and vomiting”. In addition, the “theophylline per 100 ml. of water in composition” value in series [3] was 4.4 g. per 100 ml. of water. In series [3] (water), the solubility at 72 h is not below 44 mg/mL. Moreover, the “concentration in aqueous solution with guaiacol or water soluble forms thereof” value in series [8] (solubilized by guaiacol and water soluble forms) is listed as not above 4.0 g./100 ml. Further, the “effect of water soluble ingredients on theophylline solubility” value in series [8] (sucrose, sorbitol, glycerol, ethanol, solubilized by guaiacol and its derivatives) is “do not tend to diminish the solubility of the theophylline significantly”.

These data come from USRE29359E, “Bronchodilator expectorant composition containing theophylline and a guaiacol” (priority 1976, dated 1977).
